Assay: Solubility in water

Compound | Solubility in water [wt. %]
CCN(O)CC [DEHA, diethylhydroxylamine] | ~85
CC(C)NO [NiPHA, N-isopropylhydroxylamine] | ~15

Reference: patent US6495065B1, “Nitrosamine-inhibiting compositions for shortstopping of free radical emulsion polymerizations” (Atofina Chemicals, Inc., priority 1999, dated 2002)
